Assay results: patent US10774115B2, “Modified Fab region-binding peptide” (Kaneka Corporation, priority 2015, dated 2020)

What was measured:
[1] = tested on: aTNF-Fab; experiment: Acid dissociation pH by pH linear gradient chromatography on aTNF-Fab-immobilized column; format: binding; settings: for Dissociation pH (pH at elution peak top): pH linear gradient from pH 5.5 to pH 2.5; for elution position in pH gradient compared with peptide without mutation: Table 3 and FIG. 2
Protocol: An affinity separation matrix on which aTNF-Fab obtained in the above Example 2 was immobilized was prepared by using a commercially available coupling column for immobilizing a ligand. The column has an amino group as a functional group for coupling.
As a water-insoluble carrier, 1 mL of a commercially available prepacked column (“Hitrap NHS activated HP” manufactured by GE Healthcare Bioscience) was used. The column contains a crosslinked agarose as a base material and an amino group is introduced as an active functional group for immobilizing a protein ligand, and a ligand was immobilized in accordance with the product manual. Specifically, 2 mL of ice-cooled 1 mM HCl was flown at a rate of 1 mL/min repeatedly three times to remove isopropanol in the column.
Then, 1 mL of a 1 mg/mL aTNF-Fab solution in a coupling buffer (0.2 MNaHCO3, 0.5 MNaCl, pH 8.3) was immediately flown at the same rate. The top and bottom of the column were stoppled, and the column was stood still at 25° C. for 30 minutes to immobilize the obtained ligand on the column.
Then, the column was opened, and 3 mL of the coupling buffer was flown at the same rate to recover the unreacted aTNF-Fab. Next, 2 mL of a blocking buffer (0.5 M ethanolamine, 0.5 M NaCl, pH 8.3) was flown repeatedly three times and 2 mL of a washing buffer (0.1 M acetic acid, 0.5 M NaCl, pH 4.0) was flown three times. Each of the above-described procedure to flow the blocking buffer and washing buffer were performed three times one after the other. Finally, 2 mL of a standard buffer (20 mM NaH2PO4—Na2HPO4, 150 mM NaCl, pH 7.4) was flown to complete the preparation of an affinity separation matrix.
By affinity purification chromatography using aTNF-Fab-immobilized column prepared in Example 3(1), an acid dissociation pH at which each modified SpG-β1# prepared in Example 1 (2) was eluted and which corresponded to the peak top of an elution curve of the modified SpG-β1# was measured. Specifically, AKTAprime plus system was used as a chromatography system. The column was equilibrated using ion exchange buffer A (50 mM citric acid-citrate Na, pH 5.5). Into the column, 0.1 mL of a protein solution containing each modified SpG-β1# in the concentration of about 0.1 mg/mL was added, and the protein was eluted with the pH linear gradient from pH 5.5 to pH 2.5. More specifically, the ion exchange buffer A and ion exchange buffer B (50 mM AcOH—AcONa, 1 M NaCl, pH 2.5) were used. […] The pH value which was specified in the experiment as the value corresponding to each elution peak top is shown in Table 3 in addition to the result of Comparative example 3.
An acid dissociation pH of GB1#-Cont.1d prepared in Comparative example 1 was measured using aTNF-Fab-immobilized carrier prepared in Example 3(1) similarly to the procedure of Example 3(2).

[2] = tested on: aTNF-Fab; experiment: Affinity of modified SpG-β1# for aTNF-Fab by surface plasmon resonance (Biacore 3000); settings: aTNF-Fab immobilized on CM5 sensor tip, 25° C., pH 7.4, 1:1 binding model
Protocol: A humanized monoclonal IgG product as a raw material was fragmented into a Fab fragment and a Fc fragment using papain, and only the Fab fragment was separated and purified. Specifically, anti-human TNFα monoclonal IgG (generic name: “Infliximab”, product name: “Remicade” manufactured by Mitsubishi Tanabe Pharma Corporation) was dissolved in a buffer for papain treatment (0.1 M AcOH—AcONa, 2 mM EDTA, 1 mM cysteine, pH 5.5), and agarose on which papain was immobilized (“Papain Agarose from papaya latex” manufactured by SIGMA) was added thereto. The mixture was incubated with stirring by a rotator at 37° C. for about 8 hours. The IgG-Fab was purified by recovering as a flow-through fraction in an affinity chromatography using MabSelect SuRe column (GE Healthcare Bioscience) from the reaction mixture which contained both of a Fab fragment and a Fc fragment and which was separated from the agarose on which papain was immobilized. The obtained IgG-Fab solution was subjected to purification by gel filtration chromatography using Superdex 75 10/300 GL column to obtain the solution of IgG-Fab (aTNF-Fab). In the chromatography, the standard buffer was used for equilibration and separation. Similarly to the above-described Example 1, AKTAprime plus system was used in the chromatography for peptide purification.
The affinity of each various modified SpG-β1# obtained in the above Example 1(2) for aTNF-Fab was evaluated using a biosensor Biacore 3000 (GE Healthcare Bioscience) utilizing surface plasmon resonance. In the present Example, the aTNF-Fab obtained in the above Example 2(1) was immobilized on a sensor tip, and each of the peptide was flown on the tip to detect the interaction between the two. The aTNF-Fab was immobilized on a sensor tip CM5 by amine coupling method using N-hydroxysuccinimide (NHS) and N-ethyl-N′-(3-dimethylaminopropyl)carbodiimide hydrochloride (EDC), and ethanolamine was used for blocking. All of the sensor tip and reagents for immobilization were manufactured by GE Healthcare Bioscience. The aTNF-Fab solution was diluted about 10 times using a buffer for immobilization (10 mM AcOH—AcONa, pH 4.5), and the aTNF-Fab was immobilized on the sensor tip in accordance with the protocol attached to the Biacore 3000. In addition, a reference cell as negative control was also prepared by activating another flow cell on the tip with EDC/NHS, immobilizing nothing and blocking with ethanolamine. Peptide solutions of each various modified SpG-β1# having concentrations of 0.01, 0.1, 1 or 10 μM were prepared using a running buffer (20 mM NaH2PO4—Na2HPO4, 150 mM NaCl, 0.005% P-20, pH 7.4). The peptide solution was added to the sensor tip in a flow rate of 40 μL/min for 1 minute. Bonding response curves at the time of addition (association phase, for 1 minute) and after the addition (dissociation phase, for 1 minute) were sequentially obtained at a measurement temperature of 25° C. After each measurement, the cells were washed using about 20 mM NaOH. The bonding response curve obtained by subtracting the bonding response curve of the reference cell was subjected to fitting analysis by a binding model of 1:1 using a software BIA evaluation attached to the system, and affinity constant (KA=kon/koff) to aTNF-Fab was calculated. The result is shown in Table 2 with each binding parameter of GB1#-Cont.1d, which parameter was measured in Comparative Example 2.
An affinity of GB1#-Cont.1d prepared in Comparative example 1 for aTNF-Fab prepared in Example 2(1) was evaluated similarly to the procedure of Example 2(2).

Substance | Dissociation pH (pH at elution peak top) [1] | KA (affinity constant, KA=kon/koff) [2] | koff [2] | kon [2] | elution position in pH gradient compared with peptide without mutation [1]
GB1#-Cont.1d: modified SpG-β1 of SEQ ID NO: 1 with improved binding capability to Fab; peptide before substitution mutation, Comparative example (TTYKLILNGKTLTGYTTAIAADAATAEIVLKQFANDNGIDGEWTYDDATKTFTVTE; Immunoglobulin-binding peptide) [reference compound] | 2.60 | 2.45 ×10^6 [M^−1] | 1.70 ×10^−2 [s^−1] | 4.17 ×10^4 [M^−1s] | –
GB1#-D36V.1d: modified SpG-β1# single domain with mutation D36V; amino acid SEQ ID NO: 19 (TTYKLILNGKTLTGYTTAIAADAATAEIVLKQFANVNGIDGEWTYDDATKTFTVTE; GB1#-mutant) | 3.40 | 0.51 ×10^6 [M^−1] | 6.40 ×10^−2 [s^−1] | 3.28 ×10^4 [M^−1s] | eluted earlier than GB1#-Cont.1d
GB1#-T17A.1d: modified SpG-β1# single domain, SEQ ID NO: 1 with Thr at 17th position substituted by Ala; amino acid SEQ ID NO: 17 (TTYKLILNGKTLTGYTAAIAADAATAEIVLKQFANDNGIDGEWTYDDATKTFTVTE; GB1#-mutant) | 2.85 | 0.88 ×10^6 [M^−1] | 2.85 ×10^−2 [s^−1] | 2.50 ×10^4 [M^−1s] | eluted earlier than GB1#-Cont.1d
GB1#-T17V.1d: modified SpG-β1# single domain with mutation T17V; amino acid SEQ ID NO: 18 (TTYKLILNGKTLTGYTVAIAADAATAEIVLKQFANDNGIDGEWTYDDATKTFTVTE; GB1#-mutant) | 3.00 | 0.57 ×10^6 [M^−1] | 3.35 ×10^−2 [s^−1] | 1.91 ×10^4 [M^−1s] | eluted earlier than GB1#-Cont.1d
